Converted amounts (≈) assume the structure as drawn. Numbered stars: 1 amine (or outer) side, 2 acyl side, 3 side chain; on linkers, the order of the positions; unused ones are H or OH. Square brackets hold non-standard residues; d marks the D form. Peptide text beside a SMILES is read from it. X1 = CC(C)[C@H](C)N(CC(=O)[*:2])[*:1]; Nspe = C[C@H](NCC(=O)O)c1ccccc1; Nphe = O=C(O)CNCc1ccccc1; Nlys = NCCCCNCC(=O)O
Legend:
E. coli JM109 = assay type: cell-based; details: JM109
Excerpt: (§1) An initial set of 15 ampetoid analogs was synthesized to determine whether peptoids are affected by structural and sequence modifications in a manner consistent with AMP activities. The designs for ampetoids in this library were derived from two antibacterial and selective amphipathic dodecamers, 1 and 2. Peptoid 1 [H-(Nlys-Nspe-Nspe)4—NH2] is composed of 2/3 Nspe, the peptoid analog of phenylalanine, and 1/3 Nlys, the peptoid analog of lysine (see FIG. 1 for the structures of representative peptoid monomers and corresponding N-substituents). Peptoid 2 [H-(Nlys-Nssb-Nspe)4—NH2] contains 1/3 isoleucine-like Nssb monomers in place of Nspe. The variant sequences were designed to effect changes in chirality, length, hydrophobicity, charge, and amphipathicity. All of these compounds were tested for antibacterial activity against representative BSL1 Gram-negative (E. coli JM109) and Gram-positive (B. subtilis BR151) bacterial strains. As an initial measure of selectivity, the lytic activity of the peptoids was determined against human erythrocytes. Table 1 summarizes the sequences synthesized, the solvent composition at RP-HPLC elution as a relative measure of molecular hydrophobicity, and antibacterial and hemolytic activities.
(§2) Antibacterial assays. MICs were determined according to CLSI M7-A6 protocols in a 96-well microtiter plate. In test wells, 50 μL bacterial inoculum (5×10^5 CFU/ml) in Mueller-Hinton broth (MHB) was added to 50 μL peptoid solution in MHB (prepared by 1:2 serial dilutions). Positive controls contained 50 μL inoculum and 50 μL MHB without peptoid. […] MIC values reported were reproducible between three independent experimental replicates, each consisting of two parallel trials. Broad-spectrum antimicrobial susceptibility testing was performed against BSL2 pathogens by Nova Biologicals, Inc. (Conroe, Tex.).

[1] = tested on: Proteus mirabilis ATCC 35659; assay type: cell-based; details: ATCC 35659
Procedure: as §2
(§3) Broad-spectrum antibacterial assays. MICs of compounds were determined by microdilution procedure in Mueller-Hinton broth (MHB) in accordance with CLSI M7-A6 protocols in a manner similar to that described for the screen antibacterial assays. Inoculated microtiter plates were incubated at 35° C. for 24 hours prior to the result being recorded. Four ATCC strains that were used as standards are recommended by CLSI: Pseudomonas aeruginosa ATCC 27853, Escherichia coli ATCC 25922, Staphylococcus aureus ATCC 29213 and Enterococcus faecalis ATCC 29212. Other strains from the ATCC collection include Proteus vulgaris ATCC 49132, Proteus mirabilis ATCC 35659, Klebsiella pneumoniae ATCC 33495, Enterobacter aerogenes ATCC 35029 and Serratia marcescens ATCC 13880. S. aureus NRS100 (COL) is a well characterized methicillian-resistant S. aureus (MRSA) strain. The strains S. aureus VAN1 and S. aureus VAN2, vancomycin-resistant MRSA strains that were isolated in Michigan and Pennsylvania, were the first vancomycin-resistant strains clinically isolated. S. aureus NRS119 and S. aureus NRS120 are linezolid-resistant isolates from the Network on Antimicrobial Resistance in S. aureus (NARSA) collection. E. faecalis 99 and E. faecium 106 are vancomycin-resistant enterococcal strains.

[2] = tested on: Staphylococcus aureus NRS120; assay type: cell-based; details: for MIC S. aureus NRS120: Table 7A, linezolid-resistant
Procedure: as §2, §3

[3] = tested on: Staphylococcus aureus VAN1; assay type: cell-based; details: for MIC S. aureus VAN1: Table 7A, MRSA, vancomycin-resistant
Procedure: as §2, §3

[4] = tested on: Klebsiella pneumoniae ATCC 33495; assay type: cell-based; details: for MIC K. pneumoniae ATCC 33495: Table 7A
Procedure: as §2, §3

[5] = tested on: Staphylococcus aureus NRS119; assay type: cell-based; details: for MIC S. aureus NRS119: Table 7A, linezolid-resistant
Procedure: as §2, §3

[6] = tested on: Staphylococcus aureus VAN2; assay type: cell-based; details: for MIC S. aureus VAN2: Table 7A, MRSA, vancomycin-resistant
Procedure: as §2, §3

[7] = tested on: Escherichia coli ATCC 25922; assay type: cell-based; details: for MIC E. coli ATCC 25922: Table 7A
Procedure: as §2, §3

Enterococcus faecalis 99 = assay type: cell-based; details: for MIC E. faecalis 99: Table 7A
Procedure: as §2, §3

[8] = tested on: Pseudomonas aeruginosa ATCC 27853; assay type: cell-based; details: for MIC P. aeruginosa ATCC 27853: Table 7A
Procedure: as §2, §3

Enterococcus faecium 106 = assay type: cell-based; details: for MIC E. faecium 106: Table 7A
Procedure: as §2, §3

[9] = tested on: Proteus vulgaris ATCC 49132; assay type: cell-based; details: for MIC P. vulgaris ATCC 49132: Table 7A
Procedure: as §2, §3

[10] = tested on: Serratia marcescens ATCC 13880; assay type: cell-based; details: ATCC 13880
Procedure: as §2, §3

[11] = RP-HPLC elution solvent composition as measure of molecular hydrophobicity; assay type: physicochemical; details: Table 5; average of three injections; linear 5%-95% acetonitrile/water (0.1% TFA) over 45 minutes, C18 column; measure of hydrophobicity
Excerpt: as §1
Following synthesis, peptoid oligomers can be cleaved from the resin, simultaneously removing the tert-butoxycarbonyl (Boc) protecting group from Nlys residues, by treatment with 10 ml 2,2,2-trifluoroacetic acid (TFA)/triisopropylsilane/H2O (95:2.5:2.5 by volume) for 30 min. The cleavage mixture is then diluted with 25 ml 50% aqueous acetonitrile, frozen, and lyophilized. Dilution and lyophilization is repeated twice more in order to remove excess TFA. Subsequent to cleavage, peptoids are each purified to >97% homogeneity by preparative scale reversed-phase HPLC using a Waters Prep LC 4000 system, with Waters 2487 dual-wavelength UV detection, and gradient elution (solvent A, 0.1 vol % trifluoroacetic acid (TFA) in water; solvent B, 0.1 vol % TFA in acetonitrile) through a Vydac (Hysperia, Calif.) 214TP101550 C4 peptide/protein column (10-15 μm, 300 Å, 5×25 cm). Following prep HPLC, peptoid purities and crude yields were determined from analytical scale HPLC, performed with a Waters 2695 Separations Module with a Waters 2487 dual-wavelength UV detector and gradient elution (solvent A, 0.1 vol % TFA in water; solvent B, 0.1 vol % TFA in acetonitrile) through a Vydac C4 214TP53 peptide/protein column (5 μm, 300 Å, 3.2×250 mm). The precise gradient employed for HPLC depended on the identity and hydrophobicity of the oligomer in question. All analytical HPLC was performed at 0.5 ml/min flow and 58° C. Preparative HPLC was performed at 50 ml/min flow and room temperature.

SMILES	MIC P. mirabilis ATCC 35659 [1]	MIC Proteus mirabilis ATCC 35659 [1]	MIC Staphylococcus aureus NRS120 [2]	MIC Staphylococcus aureus VAN1 [3]	MIC Klebsiella pneumoniae ATCC 33495 [4]	MIC Staphylococcus aureus NRS119 [5]	MIC Staphylococcus aureus VAN2 [6]	MIC Escherichia coli ATCC 25922 [7]	MIC Enterococcus faecalis 99 (Enterococcus faecalis 99)	MIC Pseudomonas aeruginosa ATCC 27853 [8]	MIC Enterococcus faecium 106 (Enterococcus faecium 106)	MIC Proteus vulgaris ATCC 49132 [9]	MIC S. marcescens ATCC 13880 [10]	MIC Serratia marcescens ATCC 13880 [10]	HPLC elution (% ACN) [11]	MIC S. aureus NRS120 [2]	MIC S. aureus VAN1 [3]	MIC K. pneumoniae ATCC 33495 [4]	MIC S. aureus NRS119 [5]	MIC S. aureus VAN2 [6]	other results
C[C@@H](c1ccccc1)N(CC(N)=O)C(=O)CN(C(=O)CN(CCCCN)C(=O)CN(C(=O)CN(C(=O)CN(CCCCN)C(=O)[C@@H]1CCCN1C(=O)CN(C(=O)CN(CCCCN)C(=O)CN(C(=O)CN(C(=O)CNCCCCN)[C@@H](C)c1ccccc1)[C@@H](C)c1ccccc1)[C@@H](C)c1ccccc1)[C@@H](C)c1ccccc1)[C@@H](C)c1ccccc1)[C@@H](C)c1ccccc1 [1-Pro6, H-Nlys-Nspe-Nspe-Nlys-Nspe-L-Pro-(Nlys-Nspe-Nspe)2-NH2] (H-[Nlys][Nspe][Nspe][Nlys][Nspe]P[Nlys][Nspe][Nspe][Nlys][Nspe][Nspe]-NH2)	>128 µg/mL	>72.9 µM	9.1 µM (≈ 16 µg/mL)	4.6 µM (≈ 8.07 µg/mL)	9.1 µM (≈ 16 µg/mL)	9.1 µM (≈ 16 µg/mL)	4.6 µM (≈ 8.07 µg/mL)	9.1 µM (≈ 16 µg/mL)	36.5 µM (≈ 64.1 µg/mL)	18.2 µM (≈ 31.9 µg/mL)	2.3 µM (≈ 4.04 µg/mL)	18.2 µM (≈ 31.9 µg/mL)	>128 µg/mL	>72.9 µM	–	–	–	–	–	–	MICs (E. coli JM109): < 7 µM
NCCCCNCC(=O)N(CC(=O)N(CC(=O)N(CCCCN)CC(=O)N(CC(=O)N(CC(=O)N(CCCCN)CC(=O)N(CC(=O)N(CC(=O)N(CCCCN)CC(=O)N(CC(=O)N(CC(N)=O)Cc1ccccc1)Cc1ccccc1)Cc1ccccc1)Cc1ccccc1)Cc1ccccc1)Cc1ccccc1)Cc1ccccc1)Cc1ccccc1 [1achiral, H-(Nlys-Npm-Npm)4-NH2] (H-[Nlys][Nphe][Nphe][Nlys][Nphe][Nphe][Nlys][Nphe][Nphe][Nlys][Nphe][Nphe]-NH2)	>128 µg/mL	>75 µM	9.4 µM (≈ 16 µg/mL)	4.7 µM (≈ 8.02 µg/mL)	4.7 µM (≈ 8.02 µg/mL)	9.4 µM (≈ 16 µg/mL)	4.7 µM (≈ 8.02 µg/mL)	9.4 µM (≈ 16 µg/mL)	37.5 µM (≈ 64 µg/mL)	9.4 µM (≈ 16 µg/mL)	2.3 µM (≈ 3.93 µg/mL)	18.7 µM (≈ 31.9 µg/mL)	>128 µg/mL	>75 µM	59.8 % ACN	16 µg/mL (≈ 9.37 µM)	8 µg/mL (≈ 4.69 µM)	8 µg/mL (≈ 4.69 µM)	16 µg/mL (≈ 9.37 µM)	8 µg/mL (≈ 4.69 µM)	MIC E. coli ATCC 25922 [7]: 16 µg/mL (≈ 9.37 µM); MIC E. faecalis 99 (Enterococcus faecalis 99): 64 µg/mL (≈ 37.5 µM); MIC P. aeruginosa ATCC 27853 [8]: 16 µg/mL (≈ 9.37 µM); MIC E. faecium 106 (Enterococcus faecium 106): 4 µg/mL (≈ 2.34 µM); MIC P. vulgaris ATCC 49132 [9]: 32 µg/mL (≈ 18.7 µM)
CC(C)[C@H](C)N(CC(=O)N(CC(=O)N(CCCCN)CC(=O)N(CC(=O)N(CC(=O)N(CCCCN)CC(=O)N(CC(=O)N(CC(=O)N(CCCCN)CC(=O)N(CC(=O)N(CC(N)=O)[C@@H](C)c1ccccc1)[C@@H](C)C(C)C)[C@@H](C)c1ccccc1)[C@@H](C)C(C)C)[C@@H](C)c1ccccc1)[C@@H](C)C(C)C)[C@@H](C)c1ccccc1)C(=O)CNCCCCN [1-Nsdp2,5,8,11, H-(Nlys-Nsdp-Nspe)4-NH2] (H-[Nlys][X1][Nspe][Nlys][X1][Nspe][Nlys][X1][Nspe][Nlys][X1][Nspe]-NH2)	>128 µg/mL	>76.0 µM	9.5 µM (≈ 16 µg/mL)	4.8 µM (≈ 8.08 µg/mL)	4.8 µM (≈ 8.08 µg/mL)	9.5 µM (≈ 16 µg/mL)	4.8 µM (≈ 8.08 µg/mL)	4.8 µM (≈ 8.08 µg/mL)	38.0 µM (≈ 64 µg/mL)	9.5 µM (≈ 16 µg/mL)	2.4 µM (≈ 4.04 µg/mL)	19.0 µM (≈ 32 µg/mL)	>128 µg/mL	>76.0 µM	63.8 % ACN	16 µg/mL (≈ 9.51 µM)	8 µg/mL (≈ 4.75 µM)	8 µg/mL (≈ 4.75 µM)	16 µg/mL (≈ 9.51 µM)	8 µg/mL (≈ 4.75 µM)	MIC E. coli ATCC 25922 [7]: 8 µg/mL (≈ 4.75 µM); MIC E. faecalis 99 (Enterococcus faecalis 99): 64 µg/mL (≈ 38 µM); MIC P. aeruginosa ATCC 27853 [8]: 16 µg/mL (≈ 9.51 µM); MIC E. faecium 106 (Enterococcus faecium 106): 4 µg/mL (≈ 2.38 µM); MIC P. vulgaris ATCC 49132 [9]: 32 µg/mL (≈ 19 µM)
